Reference: patent US11254686B1 (Corvus Pharmaceuticals, Inc., priority 2017, dated 2022)

Legend:
adenosine A2B receptor = adenosine A2B receptor (Homo sapiens (Human), UniProt P29275); test: Adenosine receptor activity assay (Table 1), A2B activity; assay type: biochemical; settings: for Ratio: A2A activity to A2B activity (A2A/A2B); for IC50: read-out: Ave A2B cAMP IC50
adenosine A2A receptor = adenosine A2A receptor (Homo sapiens (Human), UniProt P29274); test: Adenosine receptor activity assay (Table 1), A2A activity; assay type: biochemical; settings: read-out: Ave A2A cAMP IC50
Sequence of adenosine A2A receptor (P29274 whole entry): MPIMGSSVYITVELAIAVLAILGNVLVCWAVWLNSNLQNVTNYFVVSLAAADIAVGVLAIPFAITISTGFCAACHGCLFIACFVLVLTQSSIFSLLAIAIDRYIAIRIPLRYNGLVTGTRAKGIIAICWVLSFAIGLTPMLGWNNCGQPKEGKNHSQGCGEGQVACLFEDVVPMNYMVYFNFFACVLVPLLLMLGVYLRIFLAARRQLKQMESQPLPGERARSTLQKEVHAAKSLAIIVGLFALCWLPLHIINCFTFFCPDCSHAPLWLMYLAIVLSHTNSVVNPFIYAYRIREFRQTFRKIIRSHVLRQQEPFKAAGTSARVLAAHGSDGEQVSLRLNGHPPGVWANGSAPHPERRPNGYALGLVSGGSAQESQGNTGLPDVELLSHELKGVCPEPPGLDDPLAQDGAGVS

Sequence of adenosine A2B receptor (P29275 whole entry): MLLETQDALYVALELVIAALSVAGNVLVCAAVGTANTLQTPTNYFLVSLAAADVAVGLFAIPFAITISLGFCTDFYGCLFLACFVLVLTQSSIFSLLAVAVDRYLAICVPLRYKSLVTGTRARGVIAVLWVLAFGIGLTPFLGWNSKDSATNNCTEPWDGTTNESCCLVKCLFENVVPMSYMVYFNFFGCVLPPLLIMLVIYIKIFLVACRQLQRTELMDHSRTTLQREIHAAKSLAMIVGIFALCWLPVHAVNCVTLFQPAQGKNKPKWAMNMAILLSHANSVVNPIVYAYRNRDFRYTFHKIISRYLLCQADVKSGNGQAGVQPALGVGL

| Compound | Ratio (adenosine A2B receptor) | IC50 (adenosine A2B receptor) | IC50 (adenosine A2A receptor) |
| --- | --- | --- | --- |
| COC[C@@H](Nc1nc(C(=O)NC[C@@H](C)O)c2sccc2n1)c1cccnc1 [Example Z321, N—((R)-2-Hydroxypropyl)-2-(((S)-2-methoxy-1-(pyridin-3-yl)ethyl)amino)thieno[3,2-d]pyrimidine-4-carboxamide] | 3.66 | 50 to 100 nM | 100 to 500 nM |
| CC(=O)N[C@H]1CCN(C(=O)c2nc(N[C@@H](C)c3cccnc3)nc3ccsc23)C1 [Example Z322, N—((S)-1-(2-(((S)-1-(Pyridin-3-yl)ethyl)amino)thieno[3,2-d]pyrimidine-4-carbonyl)pyrrolidin-3-yl)acetamide] | 6.33 | 100 to 500 nM | > 500 nM |
| COC[C@H](Nc1nc(C(=O)NC[C@H](C)O)c2sccc2n1)c1cccnc1 [Example Z323, N—((S)-2-Hydroxypropyl)-2-(((R)-2-methoxy-1-(pyridin-3-yl)ethyl)amino)thieno[3,2-d]pyrimidine-4-carboxamide] | 3.30 | > 500 nM | > 500 nM |
| CC(=O)N[C@H]1CCN(C(=O)c2nc(N[C@@H](C)c3ccccn3)nc3ccsc23)C1 [Example Z324, N—((S)-1-(2-(((S)-1-(Pyridin-2-yl)ethyl)amino)thieno[3,2-d]pyrimidine-4-carbonyl)pyrrolidin-3-yl)acetamide] | 28.39 | 10 to 50 nM | > 500 nM |
| COC[C@H](Nc1nc(C(=O)NC[C@@H](C)O)c2sccc2n1)c1cccnc1 [Example Z325, N—((R)-2-Hydroxypropyl)-2-(((R)-2-methoxy-1-(pyridin-3-yl)ethyl)amino)thieno[3,2-d]pyrimidine-4-carboxamide] | 1.87 | > 500 nM | > 500 nM |
| C[C@H](NC(=O)c1nc(N[C@@H](C)c2ccncc2)nc2ccsc12)c1ccncc1 [Example Z338, N—((S)-1-(Pyridin-4-yl)ethyl)-2-(((S)-1-(pyridin-4-yl)ethyl)amino)thieno[3,2-d]pyrimidine-4-carboxamide] | 1.50 | 100 to 500 nM | > 500 nM |
| C[C@H](Nc1nc(C(=O)NCCC2CCN(C(=O)OC(C)(C)C)CC2)c2sccc2n1)c1ccccn1 [Example Z342, tert-Butyl (S)-4-(2-(2-((1-(Pyridin-2-yl)ethyl)amino)thieno[3,2-d]pyrimidine-4-carboxamido)ethyl)piperidine-1-carboxylate] | 2.11 | 100 to 500 nM | 100 to 500 nM |
| C[C@H](Nc1nc(C(=O)N2CCCC2)c2sccc2n1)c1ccncc1 [Example Z344, (S)-(2-((1-(Pyridin-4-yl)ethyl)amino)thieno[3,2-d]pyrimidin-4-yl)(pyrrolidin-1-yl)methanone] | 8.03 | 10 to 50 nM | 100 to 500 nM |
| COc1ccc(CNC(=O)c2nc(N[C@@H](C)c3ccncc3)nc3ccsc23)cn1 [Example Z345, (S)—N-((6-Methoxypyridin-3-yl)methyl)-2-((1-(pyridin-4-yl)ethyl)amino)thieno[3,2-d]pyrimidine-4-carboxamide] | 1.41 | 50 to 100 nM | 100 to 500 nM |
| C[C@H](Nc1nc(C(=O)N2CC[C@@H](O)C2)c2sc(C(F)(F)F)cc2n1)c1ccccn1 [Example Z349, ((R)-3-Hydroxypyrrolidin-1-yl)(2-(((S)-1-(pyridin-2-yl)ethyl)amino)-6-(trifluoromethyl)thieno[3,2-d]pyrimidin-4-yl)methanone] | 46.63 | 10 to 50 nM | > 500 nM |
| CO[C@H]1CCN(C(=O)c2nc(N[C@@H](C)c3cccnc3)nc3cc(C)sc23)C1 [Example Z350, ((S)-3-Methoxypyrrolidin-1-yl)(6-methyl-2-(((S)-1-(pyridin-3-yl)ethyl)amino)thieno[3,2-d]pyrimidin-4-yl)methanone] | 4.80 | 10 to 50 nM | 100 to 500 nM |
| CO[C@@H]1CCN(C(=O)c2nc(N[C@@H](C)c3cccnc3)nc3cc(C)sc23)C1 [Example Z351, ((R)-3-Methoxypyrrolidin-1-yl)(6-methyl-2-(((S)-1-(pyridin-3-yl)ethyl)amino)thieno[3,2-d]pyrimidin-4-yl)methanone] | 10.17 | < 10 nM | 50 to 100 nM |
| C[C@H](Nc1nc(C(=O)N2CCC(C(=O)OC(C)(C)C)C2)c2sccc2n1)c1ccccn1 (stereo partly drawn) [Example Z355, tert-Butyl 1-(2-(((S)-1-(pyridin-2-yl)ethyl)amino)thieno[3,2-d]pyrimidine-4-carbonyl)pyrrolidine-3-carboxylate] | 1.96 | 100 to 500 nM | > 500 nM |
| C[C@H](Nc1nc(C(=O)NCCN2CCCC2)c2sccc2n1)c1ccccn1 [Example Z356, (S)-2-((1-(Pyridin-2-yl)ethyl)amino)-N-(2-(pyrrolidin-1-yl)ethyl)thieno[3,2-d]pyrimidine-4-carboxamide] | 3.31 | > 500 nM | > 500 nM |
| O=C(c1nc(NCCc2ccc(O)cc2)nc2ccsc12)N1CCCC1 [Example Z359, (2-((4-Hydroxyphenethyl)amino)thieno[3,2-d]pyrimidin-4-yl)(pyrrolidin-1-yl)methanone] | 2.57 | 100 to 500 nM | 100 to 500 nM |
| C[C@H](Nc1nc(C(=O)N2CC[C@H](N)C2)c2sccc2n1)c1ccccn1 [Example Z363, ((S)-3-Aminopyrrolidin-1-yl)(2-(((S)-1-(pyridin-2-yl)ethyl)amino)thieno[3,2-d]pyrimidin-4-yl)methanone] | 23.53 | 100 to 500 nM | > 500 nM |
| C[C@H](Nc1nc(C(=O)N2CC[C@@H](N)C2)c2sccc2n1)c1ccccn1 [Example Z364, ((R)-3-Aminopyrrolidin-1-yl)(2-(((S)-1-(pyridin-2-yl)ethyl)amino)thieno[3,2-d]pyrimidin-4-yl)methanone] | 11.16 | 100 to 500 nM | > 500 nM |
| C[C@H](Nc1nc(C(=O)N2CC[C@@H](N)C2)c2sccc2n1)c1cccnc1 [Example Z366, ((R)-3-Aminopyrrolidin-1-yl)(2-(((S)-1-(pyridin-3-yl)ethyl)amino)thieno[3,2-d]pyrimidin-4-yl)methanone] | 1.86 | > 500 nM | > 500 nM |
| C[C@H](Nc1nc(C(=O)N2CC[C@H](N)C2)c2sccc2n1)c1cccnc1 [Example Z367, ((S)-3-Aminopyrrolidin-1-yl)(2-(((S)-1-(pyridin-3-yl)ethyl)amino)thieno[3,2-d]pyrimidin-4-yl)methanone] | 5.78 | > 500 nM | > 500 nM |

The next lines start with the values.

| Ratio (adenosine A2B receptor) | IC50 (adenosine A2B receptor) | IC50 (adenosine A2A receptor) | Compound |
| --- | --- | --- | --- |
| 196.86 | < 10 nM | > 500 nM | CC(=O)N[C@H]1CCN(C(=O)c2nc(NCc3cncc(F)c3)nc3ccsc23)C1 [Example Z330, (S)—N-(1-(2-(((5-Fluoropyridin-3-yl)methyl)amino)thieno[3,2-d]pyrimidine-4-carbonyl)pyrrolidin-3-yl)acetamide] |
| – | 50 to 100 nM | 100 to 500 nM | C[C@H](Nc1nc(C(=O)NCCC2CCN(C(=O)OC(C)(C)C)CC2)c2sccc2n1)c1cncc(F)c1 [Example Z343, tert-Butyl (S)-4-(2-(2-((1-(5-Fluoropyridin-3-yl)ethyl)amino)thieno[3,2-d]pyrimidine-4-carboxamido)ethyl)piperidine-1-carboxylate] |
| 6.35 | 10 to 50 nM | 100 to 500 nM | C[C@H](Nc1nc(C(=O)N2CCC(C(=O)OC(C)(C)C)C2)c2sccc2n1)c1cncc(F)c1 (stereo partly drawn) [Example Z354, tert-Butyl 1-(2-(((S)-1-(5-fluoropyridin-3-yl)ethyl)amino)thieno[3,2-d]pyrimidine-4-carbonyl)pyrrolidine-3-carboxylate] |
| 3.03 | > 500 nM | > 500 nM | C[C@H](Nc1nc(C(=O)NCCN2CCCC2)c2sccc2n1)c1cncc(F)c1 [Example Z357, (S)-2-((1-(5-Fluoropyridin-3-yl)ethyl)amino)-N-(2-(pyrrolidin-1-yl)ethyl)thieno[3,2-d]pyrimidine-4-carboxamide] |
| 69.69 | 100 to 500 nM | > 500 nM | CNC1CN(C(=O)c2nc(NCc3cncc(F)c3)nc3ccsc23)C1 [Example Z358, (2-(((5-Fluoropyridin-3-yl)methyl)amino)thieno[3,2-d]pyrimidin-4-yl)(3-(methylamino)azetidin-1-yl)methanone] |
| 72.24 | 100 to 500 nM | > 500 nM | N[C@H]1CCN(C(=O)c2nc(NCc3cncc(F)c3)nc3ccsc23)C1 [Example Z360, (S)-(3-Aminopyrrolidin-1-yl)(2-(((5-fluoropyridin-3-yl)methyl)amino)thieno[3,2-d]pyrimidin-4-yl)methanone] |
| 28.33 | 100 to 500 nM | > 500 nM | N[C@@H]1CCN(C(=O)c2nc(NCc3cncc(F)c3)nc3ccsc23)C1 [Example Z361, (R)-(3-Aminopyrrolidin-1-yl)(2-(((5-fluoropyridin-3-yl)methyl)amino)thieno[3,2-d]pyrimidin-4-yl)methanone] |
| 95.57 | 10 to 50 nM | > 500 nM | C[C@H](Nc1nc(C(=O)N2CC[C@H](N)C2)c2sccc2n1)c1cncc(F)c1 [Example Z362, ((S)-3-Aminopyrrolidin-1-yl)(2-(((S)-1-(5-fluoropyridin-3-yl)ethyl)amino)thieno[3,2-d]pyrimidin-4-yl)methanone] |
| 2.19 | 10 to 50 nM | 50 to 100 nM | C[C@H](Nc1nc(C(=O)NCCC2CCN(C(=O)OC(C)(C)C)C2)c2sccc2n1)c1cncc(F)c1 (stereo partly drawn) [Example Z365, tert-Butyl 3-(2-(2-(((S)-1-(5-fluoropyridin-3-yl)ethyl)amino)thieno[3,2-d]pyrimidine-4-carboxamido)ethyl)pyrrolidine-1-carboxylate] |
| 2.26 | > 500 nM | > 500 nM | O=C(NC[C@H]1CCCN1)c1nc(NCc2cncc(F)c2)nc2ccsc12 [Example Z369, (R)-2-(((5-Fluoropyridin-3-yl)methyl)amino)-N-(pyrrolidin-2-ylmethyl)thieno[3,2-d]pyrimidine-4-carboxamide] |
